Key:
Type in all cases: cell-based, Mouse
3T3-L1 adipocytes [1] = assay: Triglyceride degradation in adipocytes (glycerol quantification); settings: FIG. 9; HTGT 10, 50 or 100 μg/mL, IBMX 500 μM; 4 hours
[2] = system: brown adipocyte-associated markers (Ucp1, Cidea, Cox8b, Dio2, Elovl3, Pgc1a, Prdm16); assay: Brown adipocyte-associated marker gene expression (qPCR) in adipocytes; settings: FIG. 14; GCG 0.1, 1, 5, 10 or 20 μM; 24 hours
Source text: After extracting RNA using Trizol™ reagent (Thermo Fisher Scientific), cDNA was synthesized using a RevertAid™ 1st strand cDNA synthesis kit (Thermo Fisher Scientific). Then, the expression level of target genes was quantified by CFX96 real-time quantitative PCR (qPCR; Bio-Rad) using a housekeeping gene (cyclophilin).

3T3-L1 adipocytes [3] = assay: Oxygen consumption rate (XF analyzer) in adipocytes; settings: FIG. 18; 20 μM GCG, 24 hours; with oligomycin, FCCP, rotenone/antimycin A; normalized to protein
Experimental: Mouse-derived 3T3-L1 adipocytes (American Type Culture Collection, ATCC) were cultured in an incubator using DMEM (Dulbecco's modified Eagle's medium; Sigma-Aldrich) containing 10% bovine calf serum (BCS; HyClone) and 1% penicillin/streptomycin (P/S; Sigma-Aldrich) under a standard condition (37° C., 5% CO2). For cellular differentiation, 48 hours after the cells were filled 100% on a plate, they were cultured again for 48 hours after replacing the medium with DMEM supplemented with 10% fetal bovine serum (FBS; Hyclone), 1% P/S, 0.5 mM 3-isobutyl-1-methylxanthine (IBMX; Sigma-Aldrich), 1 μM dexamethasone (Sigma-Aldrich) and 5 μg/mL insulin (Sigma-Aldrich). Then, differentiation of adipocytes was induced by culturing the cells additionally for 10 days while replacing the medium with a medium supplemented with 10% FBS, 5 μg/mL insulin and 1% P/S at two-day intervals.
The adipocytes differentiated as in Reference Example 1 were treated with 20 μM gallocatechin gallate (GCG), which is contained in large quantities particularly in the heat-transformed green tea extract (HTGT) (Table 2), for 24 hours. A negative control group was treated with a vehicle (distilled water).
Then, oxygen level and oxygen consumption rate (OCR) were measured using an XF analyzer (Agilent, Santa Clara, Calif., USA). […]

SMILES | degradation of triglycerides in adipocytes (glycerol produced) (3T3-L1 adipocytes [1]) | expression of Elovl3 [2] | expression of Prdm16 [2] | expression of uncoupling protein 1 (Ucp1) [2] | oxygen consumption rate (OCR) (3T3-L1 adipocytes [3])
CC(C)Cn1c(=O)n(C)c(=O)c2[nH]cnc21 [IBMX, 3-isobutyl-1-methylxanthine] | facilitating the degradation of triglycerides in adipocytes | – | – | – | –
O=C(O[C@@H]1Cc2c(O)cc(O)cc2O[C@H]1c1cc(O)c(O)c(O)c1)c1cc(O)c(O)c(O)c1 [GCG, gallocatechin gallate] | – | increased the expression of the fat degradation-associated Elovl3 | not changed significantly | increased the expression | increased OCR

Reference: patent US20220218778A1, “COMPOSITION FOR REDUCING BODY FAT COMPRISING GREEN TEA EXTRACT CONTAINING GALLOCATECHIN GALLATE AS AN ACTIVE INGREDIENT AND MANUFACTURING METHOD THEREOF” (AMOREPACIFIC CORPORATION, priority 2021, published 2022)
